Earlier results, collected in patent publication EP2243483A1, “Amlodipine salt compositions for topical application” (priority 2009, dated 2010).
Structures can show the parent of a compound that is named as a salt.

What was measured:
[1] = tablets
[2] = hypertensive patients
2A6 = molecular target: T1, 2A6 (Homo sapiens, UniProt P11509)
T1 sequence (P11509 1-494): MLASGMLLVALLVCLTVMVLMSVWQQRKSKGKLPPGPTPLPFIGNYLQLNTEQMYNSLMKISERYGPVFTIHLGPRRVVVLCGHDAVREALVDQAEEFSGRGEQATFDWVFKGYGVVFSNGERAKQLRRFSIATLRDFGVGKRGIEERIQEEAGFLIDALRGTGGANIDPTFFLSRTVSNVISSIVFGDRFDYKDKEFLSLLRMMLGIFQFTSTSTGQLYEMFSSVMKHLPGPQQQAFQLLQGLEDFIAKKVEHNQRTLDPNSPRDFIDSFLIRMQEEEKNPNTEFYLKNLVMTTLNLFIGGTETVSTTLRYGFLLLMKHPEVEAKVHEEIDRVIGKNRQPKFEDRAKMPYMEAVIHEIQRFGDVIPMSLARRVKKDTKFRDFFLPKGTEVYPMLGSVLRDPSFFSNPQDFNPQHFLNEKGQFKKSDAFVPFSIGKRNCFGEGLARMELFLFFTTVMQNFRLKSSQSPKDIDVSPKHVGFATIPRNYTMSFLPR

CYP 1A2 isoenzyme = molecular target: T2, CYP 1A2 isoenzyme (Homo sapiens, UniProt P05177)
T2 sequence (P05177 1-516): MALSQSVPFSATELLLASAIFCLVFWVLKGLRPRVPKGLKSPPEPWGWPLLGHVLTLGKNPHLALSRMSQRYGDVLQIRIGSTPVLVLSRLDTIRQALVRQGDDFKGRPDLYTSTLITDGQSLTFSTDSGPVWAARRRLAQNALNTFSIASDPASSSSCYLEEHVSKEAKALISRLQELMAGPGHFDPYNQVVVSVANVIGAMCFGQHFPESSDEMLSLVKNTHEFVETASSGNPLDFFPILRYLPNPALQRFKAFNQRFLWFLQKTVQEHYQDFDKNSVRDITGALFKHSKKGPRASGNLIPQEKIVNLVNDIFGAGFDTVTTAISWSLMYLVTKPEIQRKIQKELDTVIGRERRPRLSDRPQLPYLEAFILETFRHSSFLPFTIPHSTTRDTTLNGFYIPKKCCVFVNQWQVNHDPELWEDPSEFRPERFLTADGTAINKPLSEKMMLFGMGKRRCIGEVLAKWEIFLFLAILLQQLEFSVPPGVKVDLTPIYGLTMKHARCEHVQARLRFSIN

3A4 = 3A4 (Homo sapiens, UniProt P08684)
2D6 = 2D6 (Homo sapiens, UniProt P10635)
2B6 = molecular target: T3, 2B6 (Homo sapiens, UniProt P20813)
T3 sequence (P20813 1-491): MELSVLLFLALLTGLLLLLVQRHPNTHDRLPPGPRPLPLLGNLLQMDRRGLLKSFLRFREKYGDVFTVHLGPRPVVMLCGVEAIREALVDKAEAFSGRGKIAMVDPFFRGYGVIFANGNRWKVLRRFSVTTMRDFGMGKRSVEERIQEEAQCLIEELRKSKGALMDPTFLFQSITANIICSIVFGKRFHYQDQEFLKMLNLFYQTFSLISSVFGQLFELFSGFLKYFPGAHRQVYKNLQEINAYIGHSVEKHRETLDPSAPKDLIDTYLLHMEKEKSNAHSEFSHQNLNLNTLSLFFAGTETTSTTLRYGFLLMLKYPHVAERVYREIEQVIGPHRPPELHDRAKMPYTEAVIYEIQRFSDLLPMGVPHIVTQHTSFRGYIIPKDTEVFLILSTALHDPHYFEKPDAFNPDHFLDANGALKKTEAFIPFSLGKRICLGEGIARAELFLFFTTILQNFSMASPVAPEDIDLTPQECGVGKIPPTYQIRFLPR

2D6, sequence (P10635 whole entry): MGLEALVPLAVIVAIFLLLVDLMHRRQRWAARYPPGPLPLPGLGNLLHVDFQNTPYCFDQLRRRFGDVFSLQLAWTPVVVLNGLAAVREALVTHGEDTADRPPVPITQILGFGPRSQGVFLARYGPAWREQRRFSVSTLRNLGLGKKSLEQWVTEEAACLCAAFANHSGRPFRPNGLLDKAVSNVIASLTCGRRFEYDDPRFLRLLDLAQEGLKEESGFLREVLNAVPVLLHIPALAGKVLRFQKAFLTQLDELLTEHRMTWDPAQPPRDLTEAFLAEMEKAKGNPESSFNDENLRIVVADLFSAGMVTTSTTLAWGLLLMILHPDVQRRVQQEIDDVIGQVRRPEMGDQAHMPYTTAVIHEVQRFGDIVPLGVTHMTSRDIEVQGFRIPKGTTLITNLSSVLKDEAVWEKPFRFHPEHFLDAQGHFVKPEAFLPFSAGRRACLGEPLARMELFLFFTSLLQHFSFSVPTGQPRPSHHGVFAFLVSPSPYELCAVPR
3A4, sequence (P08684 whole entry): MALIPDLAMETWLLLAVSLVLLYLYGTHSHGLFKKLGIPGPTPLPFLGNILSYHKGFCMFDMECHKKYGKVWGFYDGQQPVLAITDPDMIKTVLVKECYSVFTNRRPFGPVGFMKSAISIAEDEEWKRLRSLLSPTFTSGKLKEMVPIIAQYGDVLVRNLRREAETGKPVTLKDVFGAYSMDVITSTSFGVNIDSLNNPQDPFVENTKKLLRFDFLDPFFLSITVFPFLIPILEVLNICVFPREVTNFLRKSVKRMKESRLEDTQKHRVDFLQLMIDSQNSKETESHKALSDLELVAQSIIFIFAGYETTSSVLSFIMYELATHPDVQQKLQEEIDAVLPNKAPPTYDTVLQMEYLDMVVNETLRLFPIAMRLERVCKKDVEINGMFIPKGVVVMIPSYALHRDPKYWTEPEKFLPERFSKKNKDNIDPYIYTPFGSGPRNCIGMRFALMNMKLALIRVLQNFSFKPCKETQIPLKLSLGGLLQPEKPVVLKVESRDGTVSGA

SMILES	converted to inactive metabolites via hepatic metabolism (in vivo, po)	time of peak concentration (in vivo, po) [h]	time required for therapeutic response, initially [1] [days]	time required for therapeutic response, peak [1]	circulating drug bound to plasma protein [2]	parent compound excreted in the urine (in vivo, po) [%]	metabolites excreted in the urine (urine, oral) [%]	inhibition (2A6)	inhibition (CYP 1A2 isoenzyme)	inhibition (3A4)	inhibition (2D6)	inhibition (2B6)	inhibition (2C8/9)
CCOC(=O)C1=C(COCCN)NC(C)=C(C(=O)OC)C1c1ccccc1Cl (stereo not shown) [amlodipine maleate]	About 90%	6 to 12	7	about 14 days	Approximately 93%	–	–	–	–	–	–	–	–
CCOC(=O)C1=C(COCCN)NC(C)=C(C(=O)OC)C1c1ccccc1Cl (stereo not shown) [amlodipine]	–	–	–	–	–	10	60	weaker inhibition	moderately inhibited	weaker inhibition	weaker inhibition	weaker inhibition	weaker inhibition
